In brackets after ≈: the same amount, converted by molar mass. Several values for one entry are separate records, joined by “and”; a condition that tells them apart may be missing. Equal entries are not always repeated. Entries after “also recorded” stand apart in the source; their conditions may differ.
What was measured:
[1] = test system: Mycobacterium smegmatis ATCC 607 (Mycobacterium 607); experiment: Antimicrobial potency by the cup method, bleomycin A2 as standard; format: cell-based; conditions: for Antimicrobial potency M. 607: bleomycin A2 standard = 1,000 U/mg; for Antimicrobial potency: product batches of the Examples, bleomycin A2 (copper-free form) = 1,000 u/mg
Experimental: (§1) The antimicrobial potency was assayed by the cup method against Mycobacterium 607 and Bacillus subtilis PCI by using bleomycin A2 as standard (1,000 U/mg).
[Note: The antimicrobial potency was assayed using Mycobacterium smegmatis ATCC 607 as assay organism and assuming the potency of bleomycin A2 (copper-free form) as 1,000 u/mg. The same applies hereinafter.]

lung of mice = experiment: Toxicity to the lung of mice (pulmonary fibrosis); format: in vivo, ICR strain mice; conditions: for Grade: Relative value / Incidence: Relative value: Bleomycin complex = 1.0, 5 mg/kg i.p. x 10 days
Experimental: ICR strain mice (male, 15 weeks old), 12 in number per group, were used. […]. The dose was administered by intraperitoneal injection, once a day, for 10 consecutive days. After administration, the mice were bred for 5 weeks. After observation, the mice were slaughtered and autopsied to determine the extent of pulmonary fibrosis. […].

HeLa S3 cell = experiment: Action on cultivated HeLa S3 cell (growth inhibition); format: cell-based; conditions: for ID50: percentage growth inhibition in 72 hours of culture
rats [2] = experiment: Acute toxicity in intraperitoneal route (LD50) in rats; conditions: rat
Bacillus subtilis PCI = experiment: Antimicrobial potency by the cup method, bleomycin A2 as standard; format: cell-based; conditions: bleomycin A2 standard = 1,000 U/mg
Experimental: as §1

[3] = test system: mouse squamous cell carcinoma induced by 20-methylcholanthrene; experiment: Inhibitory activity against mouse squamous cell carcinoma induced by 20-methylcholanthrene; format: in vivo, ddy strain mice; conditions: for Mortality: 62.5 mcg/mouse i.p. twice a week for 15 weeks; for Percentage inhibition: inhibition of carcinogenesis vs control, 62.5 mcg/mouse i.p.
From the text: An acetone solution of 20-MC was topically applied to the sheared back of ddy strain mice (male, 10 weeks old), twice a week, for 18 weeks. After 5 weeks from the beginning of the 20-MC treatment, 62.5 mcg/mouse of the test preparation was intraperitoneally applied, twice a week, during a period of 15 weeks. Within the first week after completion of the administration of test preparation, the region where 20-MC had been applied was pathologically examined for the incidence of carcinogenesis.

[4] = test system: mouse Ehrlich cancer (solid tumor); experiment: Carcinostatic activity to mouse Ehrlich cancer (solid tumor); format: in vivo, ICR strain mice; conditions: for Percentage inhibition: tumor weight on 15th day vs control; for ID50: Ehrlich solid tumor, 10 doses
Experimental: Each 2×10^6 cells were transplanted subcutaneously into the inguinal region of ICR strain mice (male, 6 weeks old). After 24 hours, each mouse was administered with test preparations in the same manner as described in 1-2 above. On the 15th day after the subcutaneous transplantation, tumors were removed from each mouse and compared the weight with that of tumors developed in the control group, which had received no treatment, to determine the percentage inhibition.

AH66 ascites hepatoma = experiment: Carcinostatic activity against ascites hepatoma (ascites type) in rats; format: in vivo, Donryu strain rats; conditions: control = 100
Experimental: Each 1×10^6 AH66 cells were transplanted intraperitoneally into Donryu strain rats. After 24 hours, the test preparation was intraperitoneally administered once a day for 10 consecutive days. During a period of 30 days after the transplantation, the weight of each rat and the number of dead and survival were observed.

[5] = Solubility (physicochemical properties); conditions: solvents as named in the value
rats [6] = test system: rats
[7] = 3.12 mg/kg x 10 i.p., 30 days observation

| Structure (SMILES) | Antimicrobial potency M. 607 [1] | Grade: Relative value (lung of mice) | Incidence: Relative value (lung of mice) | ID50 (HeLa S3 cell) | LD50 (rats [2]) | Antimicrobial potency B. Sub. (Bacillus subtilis PCI) | Mortality [3] | Percentage inhibition [3] | Percentage inhibition ([4]; 0.03 mg/kg x 10) | Percentage inhibition ([4]; 0.1 mg/kg x 10) | Percentage inhibition ([4]; 0.3 mg/kg x 10) | Percentage inhibition ([4]; 0.9 mg/kg x 10) | Percentage inhibition ([4]; 2.7 mg/kg x 10) | ID50 [4] | Relative value of average survival days (AH66 ascites hepatoma; 0.19 mg/kg x 10 i.p.) | Relative value of average survival days (AH66 ascites hepatoma; 0.39 mg/kg x 10 i.p.) | Relative value of average survival days (AH66 ascites hepatoma; 0.78 mg/kg x 10 i.p.) | Relative value of average survival days (AH66 ascites hepatoma; 1.56 mg/kg x 10 i.p.) | Solubility [5] | Antimicrobial potency [1] | also measured |
| --- | --- | --- | --- | --- | --- | --- | --- | --- | --- | --- | --- | --- | --- | --- | --- | --- | --- | --- | --- | --- | --- |
| Cc1c(N)nc(C(CC(N)=O)NCC(N)C(N)=O)nc1C(=O)NC(C(=O)NC(C)C(O)C(C)C(=O)NC(C(=O)NCCc1nc(-c2nc(C(=O)NCCCNC(C)c3ccccc3)cs2)cs1)C(C)O)C(OC1OC(CO)C(O)C(O)C1OC1OC(CO)C(O)C(OC(N)=O)C1O)c1cnc[nH]1.O=S(=O)(O)O (mixture of isomers) [RS form, 3-[(R,S)-1'-phenylethylamino]propylaminobleomycin monosulfate (copper-free form), reference compound] | 7535 U/mg | 0.49 | 0.63 | 0.80 µg/mL | 150.6 mg(w)/kg | 1400 U/mg | 1/12 | 47.8 | 13 | 51 | 51 | 60 | 78 | 0.31 mg/kg/day | 121 | 149 | 196 | 257 |  |  | Relative value of average survival days (AH66 ascites hepatoma; [7]): 298 |
| Cc1c(N)nc([C@H](CC(N)=O)NC[C@H](N)C(N)=O)nc1C(=O)N[C@H](C(=O)N[C@H](C)[C@@H](O)[C@H](C)C(=O)N[C@H](C(=O)NCCc1nc(-c2nc(C(=O)NCCCN[C@@H](C)c3ccccc3)cs2)cs1)[C@@H](C)O)[C@@H](O[C@@H]1O[C@@H](CO)[C@@H](O)[C@H](O)[C@@H]1O[C@H]1O[C@H](CO)[C@@H](O)[C@H](OC(N)=O)[C@@H]1O)c1cnc[nH]1.O=S(=O)(O)O [NK631 monosulfate (copper-free form), 3-[(S)-1'-phenylethylamino]-propylaminobleomycin monosulfate (copper-free form)] | 7848 U/mg | 0.25 | 0.36 |  | 155.0 mg(w)/kg | 1550 U/mg | 1/12 | 47.8 | 19 | 24 | 39 | 68 | 84 | 0.35 mg/kg/day | 116 | 163 | 216 | 269 | Soluble in water, methanol, acetic acid, DMSO, DMF; also recorded: sparingly soluble in dioxane; also recorded: insoluble in ethanol | 7,865 u/mg | Fibrosis grade reduced to, as compared with RS form (lung of mice; relative to RS form): about 1/2; Fibrosis incidence reduced to, as compared with RS form (lung of mice; relative to RS form): about 1/2; Fibrosis grade reduced to, as compared with bleomycin complex (lung of mice; relative to bleomycin complex): 1/4; Fibrosis incidence reduced to, as compared with bleomycin complex (lung of mice; relative to bleomycin complex): 1/3; Carcinostatic activity, times as high as that of the Bleomycin complex ([4]; relative to bleomycin complex): about 1.4 times; Relative value of average survival days (AH66 ascites hepatoma; [7]): 296; Subacute and chronic toxicity (rats [6]): comparable to Bleomycin complex; Subacute and chronic toxicity (dogs; dogs): comparable to Bleomycin complex; Toxicity to the lung (dogs; subacute and chronic toxicity study, species not stated separately): lower than that of the Bleomycin complex |
| CC(=O)O.CC(=O)O.Cc1c(N)nc([C@H](CC(N)=O)NC[C@H](N)C(N)=O)nc1C(=O)N[C@H](C(=O)N[C@H](C)[C@@H](O)[C@H](C)C(=O)N[C@H](C(=O)NCCc1nc(-c2nc(C(=O)NCCCN[C@@H](C)c3ccccc3)cs2)cs1)[C@@H](C)O)[C@@H](O[C@@H]1O[C@@H](CO)[C@@H](O)[C@H](O)[C@@H]1O[C@H]1O[C@H](CO)[C@@H](O)[C@H](OC(N)=O)[C@@H]1O)c1cnc[nH]1 |  |  |  |  |  |  |  |  |  |  |  |  |  |  |  |  |  |  | Soluble in water, methanol, acetic acid, DMSO, DMF; also recorded: sparingly soluble in dioxane; also recorded: insoluble in ethanol | 7,620 u/mg |  |
| Cc1c(N)nc(C(CC(N)=O)NCC(N)C(N)=O)nc1C(=O)NC(C(=O)NC(C)C(O)C(C)C(=O)NC(C(=O)NCCc1nc(-c2nc(C(=O)NCCCNC(C)c3ccccc3)cs2)cs1)C(C)O)C(OC1OC(CO)C(O)C(O)C1OC1OC(CO)C(O)C(OC(N)=O)C1O)c1c[nH]cn1 [NK631, 3-[(S)-1'-phenylethylamino]propylaminobleomycin] |  |  |  | 0.82 µg/mL (≈ 0.556 µM) |  |  |  |  |  |  |  |  |  |  |  |  |  |  |  |  | Cell growth inhibition compared with Bleomycin complex (HeLa S3 cell; HeLa S3, 72 hours): twice as strongly as Bleomycin complex |
| Cc1c(N)nc([C@H](CC(N)=O)NC[C@H](N)C(N)=O)nc1C(=O)N[C@H](C(=O)N[C@H](C)[C@@H](O)[C@H](C)C(=O)N[C@H](C(=O)NCCc1nc(-c2nc(C(=O)NCCCN[C@@H](C)c3ccccc3)cs2)cs1)[C@@H](C)O)[C@@H](O[C@@H]1O[C@@H](CO)[C@@H](O)[C@H](O)[C@@H]1O[C@H]1O[C@H](CO)[C@@H](O)[C@H](OC(N)=O)[C@@H]1O)c1cnc[nH]1.Cl.Cl.[Cu] [3-[(S)-1'-phenylethylamino]propylaminobleomycin dihydrochloride (copper-containing form)] |  |  |  |  |  |  |  |  |  |  |  |  |  |  |  |  |  |  | Soluble in water, methanol |  |  |
| Cc1c(N)nc([C@H](CC(N)=O)NC[C@H](N)C(N)=O)nc1C(=O)N[C@H](C(=O)N[C@H](C)[C@@H](O)[C@H](C)C(=O)N[C@H](C(=O)NCCc1nc(-c2nc(C(=O)NCCCN[C@@H](C)c3ccccc3)cs2)cs1)[C@@H](C)O)[C@@H](O[C@@H]1O[C@@H](CO)[C@@H](O)[C@H](O)[C@@H]1O[C@H]1O[C@H](CO)[C@@H](O)[C@H](OC(N)=O)[C@@H]1O)c1cnc[nH]1.Cl.Cl [NK631 dihydrochloride (copper-free form)] |  |  |  |  |  |  |  |  |  |  |  |  |  |  |  |  |  |  | Soluble in water, methanol, acetic acid, DMSO, DMF; also recorded: sparingly soluble in dioxane; also recorded: insoluble in ethanol | 7,834 u/mg and 7,820 u/mg and 7,845 u/mg |  |
